“And” between values parts separate entries of the source, which are not always exact repeats. Equal values may be shown once.
System: NCI-H196 complex spheroids with HUVEC/MSC, growth % T/C
Experiment: Anticancer human tumor NCI-H196 cell line growth inhibition [Asc];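 note: spheroids exposed to compound for 7 days before measurement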;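 for viability, T/C: 100% = DMSO vehicle control wells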
Details: for viability, T/C: stronger effect = lower value
How it was run: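 Tumor cells were grown as multicellular spheroids with stromal HUVEC and mesenchymal stem cells and treated singly or in combination. Concentrations fell in half-log steps from the clinical Cmax, or from 10 microM where none was known.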

[1] = curve of first compound, second compound 0.1 µM
[2] = curve of first compound, second compound 0.316 µM
[3] = curve of first compound, second compound 1 µM
[4] = second compound 0.1 µM, first compound 0.00949 µM
[5] = second compound 0.1 µM, first compound 0.03 µM
[6] = second compound 0.1 µM, first compound 0.0949 µM
[7] = second compound 0.1 µM, first compound 0.3 µM
[8] = second compound 0.1 µM, first compound 0.949 µM
[9] = second compound 0.1 µM, first compound 3 µM
[10] = second compound 0.316 µM, first compound 0.00949 µM
[11] = second compound 0.316 µM, first compound 0.03 µM
[12] = second compound 0.316 µM, first compound 0.0949 µM
[13] = second compound 0.316 µM, first compound 0.3 µM
[14] = second compound 0.316 µM, first compound 0.949 µM
[15] = second compound 0.316 µM, first compound 3 µM
[16] = second compound 1 µM, first compound 0.00949 µM
[17] = second compound 1 µM, first compound 0.03 µM
[18] = second compound 1 µM, first compound 0.0949 µM
[19] = second compound 1 µM, first compound 0.3 µM
[20] = second compound 1 µM, first compound 0.949 µM
[21] = second compound 1 µM, first compound 3 µM

Row | Structure (SMILES) | IC50 [1] [µM] | IC50 [2] [µM] | IC50 [3] [µM] | viability, T/C [4] [%] | viability, T/C [5] [%] | viability, T/C [6] [%] | viability, T/C [7] [%] | viability, T/C [8] [%] | viability, T/C [9] [%] | viability, T/C [10] [%] | viability, T/C [11] [%] | viability, T/C [12] [%] | viability, T/C [13] [%] | viability, T/C [14] [%] | viability, T/C [15] [%] | viability, T/C [16] [%] | viability, T/C [17] [%] | viability, T/C [18] [%] | viability, T/C [19] [%] | viability, T/C [20] [%] | further results
1 | Cc1nc(N2CCC3(CC2)COC(C)C3N)c(CO)nc1Sc1ccnc(N)c1Cl (stereo unspecified) + Cc1c(S(C)(=O)=O)c(-c2cc(F)cc(N3CCN(c4ccc(NS(=O)(=O)c5ccc(NC(CCN6CCC(C(=O)OCCCP(=O)(O)O)CC6)CSc6ccccc6)c(S(=O)(=O)C(F)(F)F)c5)cc4)CC3)c2)c(-c2ccc(Cl)cc2)n1C(C)C | 1.35 | 1.14 | 1.15 | 111 | 118 | 96.2 | 87.8 | 60.1 | 26.3 | 93.4 | 102 | 109 | 93.8 | 55.2 | 24 | 93.1 | 97.9 | 98.1 | 87 | 55.4 | IC50 (curve of first compound, second compound 3.16 µM): 0.93 µM; IC50 (curve of first compound, second compound 10 µM): 1.17 µM; viability, T/C [21]: 24%; viability, T/C (second compound 3.16 µM, first compound 0.00949 µM): 93.9%; viability, T/C (second compound 3.16 µM, first compound 0.03 µM): 97.8%; viability, T/C (second compound 3.16 µM, first compound 0.0949 µM): 103%; viability, T/C (second compound 3.16 µM, first compound 0.3 µM): 84.9%; viability, T/C (second compound 3.16 µM, first compound 0.949 µM): 49.9%; viability, T/C (second compound 3.16 µM, first compound 3 µM): 22.9%; viability, T/C (second compound 10 µM, first compound 0.00949 µM): 84.7%; viability, T/C (second compound 10 µM, first compound 0.03 µM): 93.7%; viability, T/C (second compound 10 µM, first compound 0.0949 µM): 88.5%; viability, T/C (second compound 10 µM, first compound 0.3 µM): 78%; viability, T/C (second compound 10 µM, first compound 0.949 µM): 55.9%; viability, T/C (second compound 10 µM, first compound 3 µM): 24.7%
2 | CCN1C(C(=O)NC23CCC(C(=O)O)(CC2)CC3)C(c2cccc(Cl)c2F)C2(C(=O)Nc3cc(Cl)ccc32)C12CCCCC2 (stereo unspecified) + CNC(C)C(=O)NC1CN(S(=O)(=O)c2cccc(S(=O)(=O)N3CCC4CCC(C(=O)NC(c5ccccc5)c5ccccc5)N4C(=O)C(NC(=O)C(C)NC)C3)c2)CCC2CCC(C(=O)NC(c3ccccc3)c3ccccc3)N2C1=O | < 0.00949 | < 0.00949 | < 0.00949 | 3.71 | 4.01 | 3.17 | 3.11 | 1.37 | 2.04 | 2.48 | 4.45 | 3.05 | 1.97 | 0.96 | 1.45 | 2.97 | 4.34 | 2.12 | 1.73 | 1.39 | IC50 (curve of first compound, second compound 0.01 µM): < 0.00949 µM; IC50 (curve of first compound, second compound 0.0316 µM): < 0.00949 µM; viability, T/C (second compound 0.01 µM, first compound 0.00949 µM): 6.77%; viability, T/C (second compound 0.01 µM, first compound 0.03 µM): 8.8%; viability, T/C (second compound 0.01 µM, first compound 0.0949 µM): 6.77%; viability, T/C (second compound 0.01 µM, first compound 0.3 µM): 4.95%; viability, T/C (second compound 0.01 µM, first compound 0.949 µM): 4.31%; viability, T/C (second compound 0.01 µM, first compound 3 µM): 2.99%; viability, T/C (second compound 0.0316 µM, first compound 0.00949 µM): 4.48%; viability, T/C (second compound 0.0316 µM, first compound 0.03 µM): 6.6%; viability, T/C (second compound 0.0316 µM, first compound 0.0949 µM): 5.08%; viability, T/C (second compound 0.0316 µM, first compound 0.3 µM): 5.41%; viability, T/C (second compound 0.0316 µM, first compound 0.949 µM): 2.77%; viability, T/C (second compound 0.0316 µM, first compound 3 µM): 1.77%; viability, T/C [21]: 1.39%
3 | C=C(F)C(=O)N1CCN(c2nc(OCC3CCCN3C)nc3c2CCN(c2cccc4cccc(Cl)c24)C3)CC1CC#N (stereo unspecified) | – | – | – | – | – | – | – | – | – | – | – | – | – | – | – | – | – | – | – | – | viability, T/C (compound 0.0316 µM): 95.2% and 99.4% and 108%; viability, T/C (compound 0.1 µM): 109% and 99.9% and 101%; viability, T/C (compound 0.316 µM): 100% and 102% and 113%; viability, T/C (compound 1 µM): 96.1% and 103% and 109%; viability, T/C (compound 3.16 µM): 94.2% and 103% and 111%; IC50 (curve of compound): > 10 µM and 5.95 µM

Source: PubChem BioAssay AID1963439 (Molecular Pharmacology Branch, DTP, NCI, 2024)
